Consider four molecules from patent US11046688B2, “Inhibitor compounds” (Cancer Research Technology Limited, priority 2012, dated 2021).

A word on the IC50: it is the concentration that gives 50% inhibition.

For this test, the target named is full length MPS1 (Homo sapiens (Human), UniProt P33981). Kind of test: Measurement of Inhibition of MPS1 Kinase (Caliper EZ reader, fluorescent labelled peptide H236). The test is classed as biochemical. Particulars: full length MPS1 12.5 nM or 3 nM, H236 peptide 5 μM, ATP 10 μM, 60 min at room temperature. How it is done:
The reaction was carried out for 60 min at room temperature and stopped by the addition of buffer (10 μl) containing 20 mM EDTA, 0.05% (v/v) Brij-35, in 0.1M HEPES-buffered saline (Free acid, Sigma. UK). The plate was read on a Caliper EZ reader II (Caliper Life Sciences).
The % inhibition of the compounds is calculated relative to the means of selected control wells. […] The % inhibitions at each concentration are then fitted to a 4 parameter logistic fit: y=(a+((b−a)/(1+((c/x^d)))) where a=asym min, b=asym max, c=IC50 and d=hill coefficient

Sequence of full length MPS1 (P33981 whole entry): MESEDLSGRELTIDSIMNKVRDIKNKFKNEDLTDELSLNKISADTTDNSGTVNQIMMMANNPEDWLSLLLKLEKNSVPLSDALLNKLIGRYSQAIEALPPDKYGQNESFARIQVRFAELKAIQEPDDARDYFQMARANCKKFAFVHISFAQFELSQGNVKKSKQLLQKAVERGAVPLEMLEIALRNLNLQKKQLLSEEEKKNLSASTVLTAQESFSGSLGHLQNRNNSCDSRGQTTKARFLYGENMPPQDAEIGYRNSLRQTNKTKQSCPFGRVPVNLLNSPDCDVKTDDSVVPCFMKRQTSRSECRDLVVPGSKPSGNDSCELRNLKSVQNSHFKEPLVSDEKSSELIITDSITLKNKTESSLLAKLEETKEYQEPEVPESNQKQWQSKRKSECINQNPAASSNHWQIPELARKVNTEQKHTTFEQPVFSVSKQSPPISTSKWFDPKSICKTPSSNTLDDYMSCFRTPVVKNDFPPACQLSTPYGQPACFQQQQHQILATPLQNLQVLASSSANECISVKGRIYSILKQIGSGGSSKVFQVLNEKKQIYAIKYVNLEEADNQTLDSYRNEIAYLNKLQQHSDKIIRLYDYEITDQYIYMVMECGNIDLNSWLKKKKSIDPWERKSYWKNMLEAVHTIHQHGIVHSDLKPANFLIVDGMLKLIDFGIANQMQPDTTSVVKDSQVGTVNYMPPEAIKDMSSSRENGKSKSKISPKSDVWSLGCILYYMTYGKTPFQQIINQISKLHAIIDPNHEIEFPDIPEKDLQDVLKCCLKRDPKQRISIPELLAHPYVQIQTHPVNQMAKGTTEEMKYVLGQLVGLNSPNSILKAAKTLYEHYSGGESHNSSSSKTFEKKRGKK

`COc1cc(-c2cn(C)nc2C)ccc1Nc1ncc2ccnc(NCC(C)(C)C)c2n1` [Example 48, N2-(4-(1,3-dimethyl-1H-pyrazol-4-yl)-2-methoxyphenyl)-N8-neopentylpyrido[3,4-d]pyrimidine-2,8-diamine]: the midpoint of inhibition, the IC50, lay at 5 nM.

With `COc1cc(-c2cnn(C)c2C)ccc1Nc1ncc2ccnc(NCC(C)(C)C)c2n1` [Example 49, N2-(4-(1,5-dimethyl-1H-pyrazol-4-yl)-2-methoxyphenyl)-N8-neopentylpyrido[3,4-d]pyrimidine-2,8-diamine], the IC50 is 5 nM.

For `COc1cc(-c2cnn(C)c2)ccc1Nc1ncc2c(C)cnc(NCC(C)(C)C)c2n1` [Example 149, N^2-(2-methoxy-4-(1-methyl-1H-pyrazol-4-yl)phenyl)-5-methyl-N^8-neopentylpyrido[3,4-d]pyrimidine-2,8-diamine], inhibition was half-maximal at 34 nM (IC50).

The molecule `COc1nc(-c2nnnn2C)ccc1Nc1ncc2ccnc(NCC(C)(C)OC)c2n1` [Example 161, N^8-(2-Methoxy-2-methylpropyl)-N^2-(2-methoxy-6-(1-methyl-1H-tetrazol-5-yl)pyridin-3-yl)pyrido[3,4-d]pyrimidine-2,8-diamine] returned an IC50 of 31 nM.
